“And” between values parts separate entries of the source, which are not always exact repeats. Equal entries are not always repeated. The source made the active and inactive calls.
What was measured:
Escherichia coli [1] = experiment: microbe, parasite or virus in culture
Escherichia coli [2] = experiment: microbe, parasite or virus in culture; remark: listed apart in the source
[3] = cytotoxicity in KRAS-transformed pancreatic duct cells, primary screen, cell-based, fluorescence, HTS (AID 431); format: functional; conditions: Homo sapiens;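 note: cell line used: HPDE-C7K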
[4] = cytotoxicity in HPDE-C7 cells, cell-based, fluorescence, HTS (AID 430); format: functional; conditions: Homo sapiens
HEK293 [5] = experiment: cells; format: functional, cell-based; conditions: Homo sapiens
[6] = target: T1, COUP transcription factor 2 (Homo sapiens, UniProt P24468); experiment: Luminescence-based cell-based high throughput dose response assay to identify inhibitors of COUP-TFII (NR2F2).; format: functional;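 note: HEK293 cells transiently cotransfected with COUP-TFII expression vector and reporter; luciferase reporter luminescence driven by COUP-TFII from the pX2-168 reporter plasmid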
T1 sequence (P24468 whole entry): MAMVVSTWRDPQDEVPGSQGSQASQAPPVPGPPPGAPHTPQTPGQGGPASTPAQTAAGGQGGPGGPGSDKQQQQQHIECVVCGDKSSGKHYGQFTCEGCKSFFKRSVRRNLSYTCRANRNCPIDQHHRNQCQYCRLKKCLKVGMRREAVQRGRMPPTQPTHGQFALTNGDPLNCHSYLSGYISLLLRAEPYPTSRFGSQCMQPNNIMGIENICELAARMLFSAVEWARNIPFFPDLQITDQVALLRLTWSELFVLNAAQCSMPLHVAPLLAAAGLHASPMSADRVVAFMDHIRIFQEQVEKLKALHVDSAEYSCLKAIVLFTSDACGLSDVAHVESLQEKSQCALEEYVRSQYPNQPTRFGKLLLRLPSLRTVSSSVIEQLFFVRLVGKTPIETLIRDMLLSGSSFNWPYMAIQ

[7] = target: T2, Nucleotide-binding oligomerization domain-containing protein 1 (Homo sapiens, UniProt Q9Y239); experiment: NOD1 signaling inhibitors, SAR follow-up, revised (AID 2333); format: functional
T2 sequence (Q9Y239 whole entry): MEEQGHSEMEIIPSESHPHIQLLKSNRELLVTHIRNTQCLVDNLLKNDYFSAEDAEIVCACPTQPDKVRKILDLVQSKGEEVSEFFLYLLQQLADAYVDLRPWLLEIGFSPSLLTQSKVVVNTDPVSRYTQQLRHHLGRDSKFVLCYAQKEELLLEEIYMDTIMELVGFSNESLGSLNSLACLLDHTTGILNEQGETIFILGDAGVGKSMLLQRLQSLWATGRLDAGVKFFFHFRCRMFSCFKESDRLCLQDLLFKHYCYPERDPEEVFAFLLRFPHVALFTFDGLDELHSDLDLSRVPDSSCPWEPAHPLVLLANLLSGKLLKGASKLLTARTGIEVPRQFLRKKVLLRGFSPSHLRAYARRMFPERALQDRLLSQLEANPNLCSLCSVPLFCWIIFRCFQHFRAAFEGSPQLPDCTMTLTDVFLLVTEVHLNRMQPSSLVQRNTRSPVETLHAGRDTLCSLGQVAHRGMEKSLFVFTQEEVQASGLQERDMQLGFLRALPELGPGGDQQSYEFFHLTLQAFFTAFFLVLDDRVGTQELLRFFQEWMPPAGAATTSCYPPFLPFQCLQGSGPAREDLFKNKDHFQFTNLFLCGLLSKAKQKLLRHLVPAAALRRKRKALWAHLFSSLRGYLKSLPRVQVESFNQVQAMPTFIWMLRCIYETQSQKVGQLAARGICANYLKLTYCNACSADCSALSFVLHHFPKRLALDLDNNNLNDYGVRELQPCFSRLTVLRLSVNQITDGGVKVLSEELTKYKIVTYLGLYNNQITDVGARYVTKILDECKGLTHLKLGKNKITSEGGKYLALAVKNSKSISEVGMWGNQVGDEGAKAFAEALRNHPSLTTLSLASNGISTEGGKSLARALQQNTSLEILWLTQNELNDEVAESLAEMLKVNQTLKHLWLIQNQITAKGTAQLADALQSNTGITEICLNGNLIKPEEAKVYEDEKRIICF

[8] = HepG2 cell cytotoxicity, dose response, cytotoxicity control for Shn3 inhibitor project, CellTiter-Glo, cherry-picked (AID 624134); format: functional, cell-based
HEK293 [9] = experiment: cells; conditions: Homo sapiens
Tumor necrosis factor = Tumor necrosis factor (Homo sapiens, UniProt P01375); experiment: TNFa-triggered NF-kB activation inhibitors, SAR follow-up, cell-based, revised (AID 2337); format: functional
Tumor necrosis factor, sequence (P01375 whole entry): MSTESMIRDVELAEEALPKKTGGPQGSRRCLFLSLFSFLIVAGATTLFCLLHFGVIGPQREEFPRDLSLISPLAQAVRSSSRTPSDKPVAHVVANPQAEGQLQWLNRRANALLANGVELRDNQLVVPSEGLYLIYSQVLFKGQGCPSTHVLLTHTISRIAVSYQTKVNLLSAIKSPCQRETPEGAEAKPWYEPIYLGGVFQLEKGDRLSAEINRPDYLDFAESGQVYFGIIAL

[10] = cytotoxicity in HEK-293T NF-kB-Luc cells, dose response, cytotoxicity control for B/T-cell NF-kB inhibitor project, cell-based, uHTS hits (AID 489019); format: functional;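 note: IC50 reflects cytotoxicity as loss of cell viability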
[11] = target: Nucleotide-binding oligomerization domain-containing protein 2 (Homo sapiens, UniProt Q9HC29); experiment: NOD2 signaling inhibitors, cell-based, luminescence, uHTS, HEK293 (AID 1566); format: functional
Nucleotide-binding oligomerization domain-containing protein 2, sequence (Q9HC29 whole entry, the tested form may be a part): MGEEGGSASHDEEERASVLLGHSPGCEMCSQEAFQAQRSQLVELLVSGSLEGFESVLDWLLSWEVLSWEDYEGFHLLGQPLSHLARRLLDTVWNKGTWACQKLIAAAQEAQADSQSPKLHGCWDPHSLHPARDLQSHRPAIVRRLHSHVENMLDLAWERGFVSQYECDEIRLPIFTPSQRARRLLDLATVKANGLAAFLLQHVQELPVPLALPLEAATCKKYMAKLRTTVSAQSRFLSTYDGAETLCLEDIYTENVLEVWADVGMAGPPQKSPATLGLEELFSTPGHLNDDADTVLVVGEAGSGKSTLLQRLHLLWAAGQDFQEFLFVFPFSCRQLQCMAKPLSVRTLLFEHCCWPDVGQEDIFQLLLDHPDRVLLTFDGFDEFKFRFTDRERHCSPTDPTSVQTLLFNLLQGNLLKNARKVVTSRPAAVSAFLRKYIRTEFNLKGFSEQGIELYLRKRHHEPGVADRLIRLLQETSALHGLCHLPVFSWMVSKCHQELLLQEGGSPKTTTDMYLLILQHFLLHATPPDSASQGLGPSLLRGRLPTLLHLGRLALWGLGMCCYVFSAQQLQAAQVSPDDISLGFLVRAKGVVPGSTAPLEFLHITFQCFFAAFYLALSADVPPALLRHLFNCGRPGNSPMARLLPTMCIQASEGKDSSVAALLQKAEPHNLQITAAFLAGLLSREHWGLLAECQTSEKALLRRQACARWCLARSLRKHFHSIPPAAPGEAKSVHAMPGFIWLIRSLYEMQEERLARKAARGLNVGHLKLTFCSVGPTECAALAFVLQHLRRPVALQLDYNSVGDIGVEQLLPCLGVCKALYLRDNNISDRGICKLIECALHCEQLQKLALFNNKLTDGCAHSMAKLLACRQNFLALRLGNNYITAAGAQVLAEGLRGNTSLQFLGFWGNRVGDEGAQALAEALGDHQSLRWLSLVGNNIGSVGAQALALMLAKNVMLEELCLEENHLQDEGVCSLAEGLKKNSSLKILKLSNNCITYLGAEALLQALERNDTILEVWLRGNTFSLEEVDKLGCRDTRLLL

HEK293 [12] = experiment: cells; format: functional, cell-based; conditions: Homo sapiens; remark: listed apart in the source
[13] = Shn3 3'UTR reporter inhibitors, dose response, cell-based, Clone20 osteoblasts, firefly luciferase, cherry-picked (AID 624132); format: functional;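 note: firefly luciferase luminescence from reporter carrying the Shn3 3'UTR in osteoblasts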
[14] = control 3'UTR Renilla luciferase suppression, dose response, counter-screen for Shn3 inhibitor project, cell-based, Clone20-Shn3RL, cherry-picked (AID 624133); format: functional
HEK293 [15] = experiment: NOD2 signaling inhibitors in MDP-stimulated cells, cell-based, uHTS, luminescence (AID 2001); format: functional; conditions: Homo sapiens
INS1 = experiment: beta cell apoptosis inhibitors, cytokine rescue, dose response, luminescence, retest (AID 449756); format: functional, cell-based; conditions: Rattus norvegicus;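 note: cell death triggered by IL-1 beta plus TNF-alpha plus IFN-gamma mixture; protective hits raise ATP signal compared with cytokine alone wells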
HEK293 [16] = experiment: NOD1 signaling inhibitors, primary screen, cell-based, luminescence, uHTS (AID 1578); format: functional; conditions: Homo sapiens
Jurkat = experiment: antigen receptor-induced NF-kB inhibitors, dose response, Jurkat, luciferase reporter, luminescence, B- and T-cell (AID 489004); format: functional, cell-based; conditions: Homo sapiens;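 note: NF-kB luciferase reporter Jurkat cells stimulated with PMA plus ionomycin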
HEK293 [17] = experiment: cells; format: functional, cell-based; conditions: Homo sapiens; remark: listed apart in the source

SMILES: CCOC(=O)CC(=O)Nc1ccccc1C(=O)O
- AC50 (Escherichia coli [1]): 27 µM (active)

SMILES: CC(C)CCNC(=O)c1c(N)n(CC2CCCO2)c2nc3ccccc3nc12 (configuration not stated)
- AC50 (Escherichia coli [2]): 16.3 µM (active)
- EC50 [3]: 13.6 µM (active)
- EC50 [4]: 13.2 µM (active)

SMILES: Cn1nccc1C(=O)NC1CCCc2c1cnn2-c1ccccc1F (configuration not stated)
- IC50 (HEK293 [5]): 13.8 µM (active)
- IC50 [6]: 1.51 µM (active)
- IC50 [7]: 968 nM (active) and 825 nM (active)
- AC50 [8]: 0.472 µM (active)
- IC50 (HEK293 [9]): > 20 µM (inactive)
- IC50 (Tumor necrosis factor): 4.28 µM (active) and 14.6 µM (active)
- IC50 [10]: > 80 µM (inactive)
- EC50 [11]: 0.61 µM (active)
- IC50 (HEK293 [12]): > 20 µM (inactive)
- AC50 [13]: 0.37 µM (active)
- AC50 [14]: 3.96 µM (active)
- IC50 (HEK293 [15]): 2.71 µM (active)
- AC50 (INS1): 2.26 µM (active)
- EC50 (HEK293 [16]): 0.62 µM (active)
- IC50 (Jurkat): > 80 µM (inactive)
- IC50 (HEK293 [17]): 2.36 µM (active)

SMILES: COC(=O)c1c(NC(=O)C(=O)NCCCN2CCOCC2)sc2c1CCCC2
- AC50 (Escherichia coli [1]): 19.8 µM (active)

SMILES: CC(C)Cc1ccc(CN2CCCC(NC(=O)Cn3cnnn3)C2)cc1 (configuration not stated)
- AC50 (Escherichia coli [2]): 103 µM (active)

Source: ChEMBL document CHEMBL1201862, “PubChem BioAssay data set” (2004)
